Measured values published in US4361703A, “Para-amino(or nitro)phenyl N-acetylaminothioalkanoates” (priority 1977, dated 1982).

Columns and labels:
[1] = system: albino rats (Charles River CD-1 COBS); assay: Acute oral toxicity in rats; assay type: in vivo
Experimental: (§1) (F)--Investigation of Acute Oral Toxicity in Rats
(§2) The investigation was carried out upon groups of 10 male and 10 female albino rats (Charles River CD-1 COBS) of 80-100 g body weight. […] Before the experiment they were fasted overnight, with water ad libitum. NAPA and Compound A were then administered orally by oesophageal intubation as suspensions (continuously shaken with an electromagnetic agitator) in 1% gum arabic at a volume of 2 ml/100 g body weight, and at dose levels of 1, 2, 4 and 8 g/kg. A control group received orally, under the same experimental conditions, merely 2 ml/100 g of the suspension vehicle. The rats were then kept under observation during seven days, while their behaviour patterns were observed and the mortality recorded

[2] = Acute oral toxicity in rats; assay type: in vivo; details: rat, in vivo, po; for mortality at 24 h / mortality at 48 h / mortality at 72 h / mortality at 96 h / mortality at 120 h / mortality at 144 h / mortality at 168 h: Percentage Mortality
Experimental: as §1, §2

in vivo = details: mouse, in vivo, po
Experimental: (E)--Investigation of Acute Oral Toxicity in Mice
Charles River (CD-1 COBS) albino mice, 20-22 g in weight, were kept for some days in an air-conditioned animal house and fed with a standard diet (sterile VAR granules). They were fasted overnight before experiment, with water ad libitum. 15 Male mice and 15 female mice were used for each experiment.
N-Acetyl-para-aminophenol (NAPA) and N-acetyl-para-aminophenyl N'-acetyl-D,L-methionate (Compound A) were then administered to the mice, orally, as a suspension (shaken continuously with an electromagnetic agitator) in 5% gum arabic at a volume of 0.02 ml/g, either individually or in variously proportioned mixtures and at different dose levels, as shown in Table VII below.
A control group received only the 5% gum arabic vehicle.

[3] = system: yeast-inflamed hind-paw pain-threshold; assay: Analgesic activity, Randall-Selitto test in rats; assay type: in vivo, female Charles River rats; details: for P of pain-threshold (t-test versus control): 2 millimoles/kg oral
Experimental: (C)--Investigation of Analgesic Activity in Rats
A control group received only the gum tragacanth vehicle.
In order to evaluate the effect of the treatment upon pain-thresholds, pressure was applied both to the injected hind-paw and to the other non-injected hind-paw. The pain-threshold was noted as the pressure at which the rat flinched, measured using an Ugo Basile "Analgesimeter" for both hind-paws of each rat at intervals of 1 hour, 3 hours, 5 hours and 22 hours after the administration, and expressed as the percentage of the pain-threshold pressure for the injected (and thus inflamed) hind-paw as against the non-injected (and thus healthy) hind-paw.

[4] = mouse, in vivo, po
Experimental: (A)--Investigation of Serum Concentrations in Mice
36 Charles River COBS mice (18 males and 18 females) weighing 30 g each were deprived of food for 16 hours before the trial but were given their usual drinking water. Three groups, each containing 6 males and 6 females, received a dosage of 1 ml/100 g body weight per mouse, orally by stomach tube, of a suspension in 1% gum tragacanth of respectively:
Group X: 500 mg/kg of N-acetyl-para-aminophenol
A blood sample was taken by throat-slitting from one male and one female from each Group at each study time, i.e. 1/2, 1, 2, 4 and 24 hours after the oral administration.
At times 1/2, 1, 2 and 4 hours, each serum sample was divided into three 0.1 ml trial samples for the following three determinations:

[5] = system: yeast-induced hyperthermia; assay: Antipyretic activity, yeast-induced hyperthermia test in rats; assay type: in vivo, male Charles River rats; details: compared with NAPA, equimolar basis, oral
Experimental: (D)--Investigation of Antipyretic Activity in Rats
Using the conventional procedure for the yeast-induced hyperthermia test, several groups of 10 male Charles River rats were given a subcutaneous injection of dried yeast. Immediately after the injection they were then medicated orally with respectively:
100 mg/kg of N-acetyl-para-aminophenol (NAPA);
80 mg/kg of NAPA+43.0 mg/kg of Compound A; and
60 mg/kg of NAPA+86.0 mg/kg of Compound A.
In the mixtures the amount of Compound A, N-acetyl-para-aminophenyl N'-acetyl-D,L-methionate, used was in each case equimolar with the 10%, 20% or 40% reduction in the amount of NAPA, so that all the medications were carried out at a level equivalent to 100 mg/kg of NAPA.

Structure (SMILES): CSCCC(NC(C)=O)C(=O)Oc1ccc(NC(C)=O)cc1 (racemic) [Compound A, N-acetyl-para-aminophenyl N'-acetyl-D,L-methionate]
- toxicity compared with NAPA ([1]; oral, rats): far less toxic than NAPA
- mortality (in words) ([1]; oral, rats, 1-8 g/kg): no mortality was recorded at any of the different dose levels
- mortality (in words) ([1]; rat, in vivo, po): did not induce any mortality at dose levels up to 8 g/kg
- LD50 at 24 h [2]: > 8000 mg/kg
- LD50 at 168 h [2]: > 8000 mg/kg
- mortality at 24 h ([2]; 1000 mg/kg): 0%
- mortality at 48 h ([2]; 1000 mg/kg): 0%
- mortality at 72 h ([2]; 1000 mg/kg): 0%
- mortality at 96 h ([2]; 1000 mg/kg): 0%
- mortality at 120 h ([2]; 1000 mg/kg): 0%
- mortality at 144 h ([2]; 1000 mg/kg): 0%
- mortality at 168 h ([2]; 1000 mg/kg): 0%
- mortality at 24 h ([2]; 2000 mg/kg): 0%
- mortality at 48 h ([2]; 2000 mg/kg): 0%
- mortality at 72 h ([2]; 2000 mg/kg): 0%
- mortality at 96 h ([2]; 2000 mg/kg): 0%
- mortality at 120 h ([2]; 2000 mg/kg): 0%
- mortality at 144 h ([2]; 2000 mg/kg): 0%
- mortality at 168 h ([2]; 2000 mg/kg): 0%
- mortality at 24 h ([2]; 4000 mg/kg): 0%
- mortality at 48 h ([2]; 4000 mg/kg): 0%
- mortality at 72 h ([2]; 4000 mg/kg): 0%
- mortality at 96 h ([2]; 4000 mg/kg): 0%
- mortality at 120 h ([2]; 4000 mg/kg): 0%
- mortality at 144 h ([2]; 4000 mg/kg): 0%
- mortality at 168 h ([2]; 4000 mg/kg): 0%
- mortality at 24 h ([2]; 8000 mg/kg): 0%
- mortality at 48 h ([2]; 8000 mg/kg): 0%
- mortality at 72 h ([2]; 8000 mg/kg): 0%
- mortality at 96 h ([2]; 8000 mg/kg): 0%
- mortality at 120 h ([2]; 8000 mg/kg): 0%
- mortality at 144 h ([2]; 8000 mg/kg): 0%
- mortality at 168 h ([2]; 8000 mg/kg): 0%
- LD50 at 24 h (in vivo): ≥ 4000 mg/kg
- LD50 at 168 h (in vivo): ≥ 4000 mg/kg
- Percentage Pain-Threshold (injected vs non-injected paw) ([3]; 1 millimole/kg oral (NAPA 151, A 324 mg/kg), 1 hr. (3.5 hrs. from yeast)): 44 ± 3.8 Percentage
- Percentage Pain-Threshold (injected vs non-injected paw) ([3]; 1 millimole/kg oral (NAPA 151, A 324 mg/kg), 3 hrs. (5.5 hrs. from yeast)): 41 ± 2.9 Percentage
- Percentage Pain-Threshold (injected vs non-injected paw) ([3]; 1 millimole/kg oral (NAPA 151, A 324 mg/kg), 5 hrs. (7.5 hrs. from yeast)): 50 ±4.2 Percentage
- Percentage Pain-Threshold (injected vs non-injected paw) ([3]; 1 millimole/kg oral (NAPA 151, A 324 mg/kg), 22 hrs. (24.5 hrs. from yeast)): 50 ± 2.4 Percentage
- analgesic effect ([3]; 2 millimoles/kg level, oral): statistically-significant analgesic effect at the 2 millimoles/kg level, which is at least as great as N-acetyl-para-aminophenol (NAPA)
- Percentage Pain-Threshold (injected vs non-injected paw) ([3]; 2 millimoles/kg oral (NAPA 302, A 648 mg/kg), 1 hr. (3.5 hrs. from yeast)): 53 ± 3.3 Percentage
- Percentage Pain-Threshold (injected vs non-injected paw) ([3]; 2 millimoles/kg oral (NAPA 302, A 648 mg/kg), 3 hrs. (5.5 hrs. from yeast)): 54 ±3.2 Percentage
- Percentage Pain-Threshold (injected vs non-injected paw) ([3]; 2 millimoles/kg oral (NAPA 302, A 648 mg/kg), 5 hrs. (7.5 hrs. from yeast)): 59 ± 2.7 Percentage
- Percentage Pain-Threshold (injected vs non-injected paw) ([3]; 2 millimoles/kg oral (NAPA 302, A 648 mg/kg), 22 hrs. (24.5 hrs. from yeast)): 54 ± 1.9 Percentage
- P of pain-threshold (t-test versus control) ([3]; 1 hr.): < 0.02
- P of pain-threshold (t-test versus control) ([3]; 3 hrs.): < 0.02
- P of pain-threshold (t-test versus control) ([3]; 5 hrs.): < 0.01
- P of pain-threshold (t-test versus control) ([3]; 22 hrs.): < 0.01
- serum "total" or "enzymatic" NAPA profile [4]: does not however give the acute peak observed at one-half an hour after the administration of NAPA+methionine
- antipyretic effect [5]: virtually identical upon an equimolar basis of comparison with that of the well-tried analgesic NAPA
